Reference: publication PMC9791066, “Investigations into the antibacterial effects and potential mechanism of gambogic acid and neogambogic acid” (Frontiers in Microbiology, 2022)
Converted amounts (≈) assume the structure as drawn. Read-outs that look alike come from different tables or passages of the source.

Experiments:
[1] = system: E. coli BAS849 transformed with pQE80L or pQE80L-EfaUPPS variants; experiment: Ex-vivo growth inhibition assay; type: cell-based, Escherichia coli; details: compound at 8 μg/mL
Procedure: The E. faecalis ATCC29212 undecaprenyl pyrophosphate synthase genes, and the L91A and L146A mutation fragments were cloned into the BamH I and Hind III digested pQE80Lvector, respectively. The resulting plasmids were transformed into E. coli BAS849, respectively. The strain transformed with the empty vector pQE80L was used as a negative control. A single colony of each transformant was inoculated into LB broth supplemented with 100 μg/mL ampicillin and incubated at 200 rpm, 37°C overnight. After diluted the cultures to 7 × 10^5 CFU/mL by LB broth, 5 μl of each diluted cultures were dripped onto a LB agar plate supplemented with IPTG (0.5 mM), and GA or NGA (8 μg/mL) followed by cultivation at 37°C overnight, and then imaged. In the meantime, another 5 μl of each diluted cultures were diluted in 100 ul LB and coated on the relevant plates to check for bacterial CFUs.

[2] = system: E. faecalis ATCC29212; experiment: Bacterial activity (bactericidal) test; type: cell-based, Enterococcus faecalis; details: 2 μg/mL
Procedure: The E. faecalis ATCC29212 were pre-cultured in LB broth at 200 rpm, 37°C overnight, and then the cultures were diluted to 7 × 10^5 CFU/mL by LB broth. A 96-well microtiter plate was inoculated with 200 μl the diluted cultures per well containing 0.1 mg/mL Resazurin with or without 2 μg/mL GA or NGA, followed by incubation at 37°C for 24 h, and then imaged. Three biological replicates were performed for each sample. To visualized the potential bactericidal properties for GA and NGA, the 24 h of GA/NGA-pretreated E. faecalis were coated on the plate to continue cultured overnight. The bactericidal properties of the compounds were determined by counting the bacterial CFUs.

[3] = target: T1, EfaUPPS (K47A) (Enterococcus faecalis, UniProt Q831K9, K53A); experiment: Microscale thermophoresis binding assay, EfaUPPS K47A
T1 construct: His tag; made in house; host or cells: E. coli BL21(DE3)
T1 sequence (Q831K9 whole entry K53A): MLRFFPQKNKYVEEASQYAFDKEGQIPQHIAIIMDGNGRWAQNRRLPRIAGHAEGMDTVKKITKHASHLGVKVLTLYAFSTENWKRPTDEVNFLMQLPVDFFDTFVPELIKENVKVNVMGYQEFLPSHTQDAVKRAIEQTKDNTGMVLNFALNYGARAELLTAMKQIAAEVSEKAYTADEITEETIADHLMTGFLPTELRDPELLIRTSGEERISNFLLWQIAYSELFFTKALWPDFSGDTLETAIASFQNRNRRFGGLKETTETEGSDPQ
Procedure: (§1) To characterize the binding affinity between EfaUPPS and GA or NGA, the MST binding assay was performed as previously described ([Lin et al., 2020]). In brief, His-tagged EfaUPPS and site-directed mutated EfaUPPS were labeled with the NT- 647-NHS dye using the Monolith NTTM Protein Labeling Kit RED-NHS (NanoTemper Technologies). Two-fold serially diluted GA or NGA was mixed with 10 nM of labeled EfaUPPS or its derivatives in 10 μl of binding buffer (137 mM NaCl, 2.7 mM KCl, 10 mM Na2HPO4, 1.8 mM KH2PO4, and 0.05% Tween-20, pH 7.8), incubated for 15 min, at room temperature. And then, loaded the mixtures into NT.115 premium coated capillaries (NanoTemper Technologies). MST trace signals were collected from the IR laser on to off for about 20 s, under the 5% LED power and high MST power mode. The change of molecular thermophoresis was monitored by standardized fluorescence value Fnorm, and the binding curve was plotted according to the values of Fnorm. The formed complex affinity was analyzed by MO Affinity Analysis software version 2.3. Apparent dissociation constants (Kd) were calculated using nonlinear fitting assuming one specific binding site with the GraphPad Prism 7 software with the following formula: Y = B^∗Max X/KD + X.
(§2) (^∗ where BMax is the maximum theoretical specific binding; here BMax = 1).

[4] = target: T2, EfaUPPS (Enterococcus faecalis, UniProt Q831K9); experiment: Compound/substrate-UPPS binding competition experiment; type: biochemical; details: 0-20 μM FPP, 1/2/5 μM compound
T2 construct: His tag; made in house; host or cells: E. coli BL21(DE3)
T2 sequence (Q831K9 whole entry): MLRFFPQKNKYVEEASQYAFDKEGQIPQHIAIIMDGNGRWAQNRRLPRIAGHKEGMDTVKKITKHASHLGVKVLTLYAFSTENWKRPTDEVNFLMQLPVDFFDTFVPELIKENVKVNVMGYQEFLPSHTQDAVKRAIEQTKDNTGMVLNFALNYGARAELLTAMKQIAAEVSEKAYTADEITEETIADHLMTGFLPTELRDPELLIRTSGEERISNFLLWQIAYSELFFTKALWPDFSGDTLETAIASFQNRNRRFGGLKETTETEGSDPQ
Procedure: The compound/substrate-UPPS binding competition experiment was performed as the above descriptions. The difference is that the reaction buffer containing 35 μM IPP, different concentrations of FPP ranged from 0–20 μM, and in the presence of 0/1/2/5 μM GA/NGA, respectively. Data were plotted with competitive inhibition model using GraphPad Prism7.

[5] = target: T3, EfaUPPS (R42A) (Enterococcus faecalis, UniProt Q831K9, R48A); experiment: UPPS inhibition assay, EfaUPPS R42A mutant; type: biochemical; details: for effect of mutation on inhibitory effect of compound on EfaUPPS enzyme activity: R42A mutant compared with wild-type
T3 construct: His tag; made in house; host or cells: E. coli BL21(DE3)
T3 sequence (Q831K9 whole entry R48A): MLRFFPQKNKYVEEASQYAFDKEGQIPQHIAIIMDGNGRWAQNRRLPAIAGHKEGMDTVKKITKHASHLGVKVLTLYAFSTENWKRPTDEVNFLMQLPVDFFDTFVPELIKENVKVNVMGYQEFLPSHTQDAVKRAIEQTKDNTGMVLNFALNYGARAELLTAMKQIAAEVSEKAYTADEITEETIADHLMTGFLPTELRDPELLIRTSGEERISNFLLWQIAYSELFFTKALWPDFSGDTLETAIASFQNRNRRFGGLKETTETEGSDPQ
Procedure: The EfaUPPS site-directed mutagenesis was generated using QuikChange site-directed mutagenesis kit (Agilent) according to the manufacturer’s instructions. The purification of site-directed mutation was using a similar strategy as described above.
The UPPS inhibition assay was carried out by measuring the fluorescence of the reaction mixture in a black 96-well microtiter plate (Corning, United States). […] After the indicated incubation period, the reaction was terminated by the addition of 10 μl of 0.5 M EDTA solution. Transferred 50 μl of the reaction mixture into a new 96-well microtiter plate, and quenched with an equal volume of Master Reaction Mix (Pyrophosphate Assay Kit, Sigma-Aldrich, USA) for 30 min. The UPPS inhibitory activity was performed by calculating the fluorescence percentage through determining the fluorescence absorbance of reaction mixture at 316 and 456 nm. Data of UPPS inhibitory activities were plotted versus compound concentrations on a semi-log scale using GraphPad Prism7. All the results were the means of at least three biological replicates.

[6] = target: T4, EfaUPPS (L91A) (Enterococcus faecalis, UniProt Q831K9, L97A); experiment: Microscale thermophoresis binding assay, EfaUPPS L91A; details: MST, no binding
T4 construct: His tag; made in house; host or cells: E. coli BL21(DE3)
T4 sequence (Q831K9 whole entry L97A): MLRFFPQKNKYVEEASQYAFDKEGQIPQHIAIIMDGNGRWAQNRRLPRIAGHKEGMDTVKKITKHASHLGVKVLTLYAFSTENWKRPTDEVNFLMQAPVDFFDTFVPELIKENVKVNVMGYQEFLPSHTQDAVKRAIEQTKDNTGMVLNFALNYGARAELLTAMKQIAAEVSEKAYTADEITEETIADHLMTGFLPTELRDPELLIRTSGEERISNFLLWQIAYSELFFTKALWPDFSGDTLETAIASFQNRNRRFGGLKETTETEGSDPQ
Procedure: as §1, §2

[7] = system: MRSA; experiment: MIC, microtiter broth dilution; type: cell-based, Staphylococcus aureus; details: Staphylococcus aureus, MRSA, 18 h
Procedure: (§3) Antibacterial activities were performed by examining the minimal inhibitory concentrations (MICs), which was determined by a microtiter broth dilution method as previously described ([Cotsonas King and Wu, 2009]), with minor modifications. Briefly, 96-well plates (Corning) were inoculated with 100 μl of LB broth per well containing 7 × 10^5 CFU/mL bacteria, followed by adding 100 μl of LB broth containing two-fold serial dilutions of the test compounds. […] After 18 h of incubation, the MIC was determined to be the lowest concentration without visible bacterial growth. The results were the averages of at least three biological replicates.

[8] = system: Escherichia coli ATCC25922; experiment: MIC, microtiter broth dilution; type: cell-based; details: Escherichia coli
Procedure: as §3

[9] = system: Listeria monocytogenes ATCC19117; experiment: MIC, microtiter broth dilution; type: cell-based; details: Listeria monocytogenes
Procedure: as §3

[10] = system: Staphylococcus aureus ATCC29213; experiment: MIC, microtiter broth dilution; type: cell-based; details: Staphylococcus aureus
Procedure: as §3

[11] = system: Enterococcus faecalis ATCC29212; experiment: MIC, microtiter broth dilution; type: cell-based; details: Enterococcus faecalis
Procedure: as §3

[12] = overexpression of wild-type EfaUPPS

Row | SMILES | growth of E. coli BAS849 ([1]; empty vector pQE80L) | growth of E. coli BAS849 [1, 12] | growth of E. coli BAS849 ([1]; pQE80L-EfaUPPS L91A) | growth of E. coli BAS849 ([1]; pQE80L-EfaUPPS L146A) | bactericidal properties (CFUs after 24 h pretreatment) [2] | Kd [3] | competition with FPP for binding to EfaUPPS [4] | effect of mutation on inhibitory effect of compound on EfaUPPS enzyme activity [5] | Kd [6] | further results
1 | CC(C)=CCC[C@]1(C)C=Cc2c(O)c3c(c(CC=C(C)C)c2O1)O[C@]12C(=C[C@@H]4C[C@H]1C(C)(C)O[C@@]2(C/C=C(/C)C(=O)O)C4=O)C3=O [GA, gambogic acid] | completely inhibited | rescued the cell growth | moderate resistance | moderate resistance | potential bactericidal effects | 4.61 ± 2.62 µM | compete with FPP | does not have significant impact | > 50000 µM | Kd fold lower than that of the wild-type ([3]; K47A vs wild-type): about 6 fold; IC50 [5]: 5.39 µM; MIC ([7]; LB broth, read-out: MIC): 4 µg/mL (≈ 6.36 µM); MIC ([8]; ATCC25922, LB broth, 18 h, read-out: MIC): > 64 µg/mL; MIC ([9]; ATCC19117, LB broth, 18 h, read-out: MIC): 4 µg/mL (≈ 6.36 µM); MIC ([10]; ATCC29213, LB broth, 18 h, read-out: MIC): 2 µg/mL (≈ 3.18 µM); MIC ([11]; ATCC29212, LB broth, 18 h, read-out: MIC): 2 µg/mL (≈ 3.18 µM)
2 | CC(C)=CCC[C@]1(C)CC(O)c2c(O)c3c(c(CC=C(C)C)c2O1)O[C@]12C(=C[C@@H]4C[C@H]1C(C)(C)O[C@@]2(C/C=C(/C)C(=O)O)C4=O)C3=O (stereo partly shown) [NGA, neogambogic acid] | completely inhibited | rescued the cell growth | moderate resistance | moderate resistance | potential bactericidal effects | 65.9 ± 25.8 µM | compete with FPP | significantly reduced | > 50000 µM | Kd fold higher than that of the wild-type ([3]; K47A vs wild-type): about 10 fold; MIC [7]: 4 µg/mL (≈ 6.18 µM); MIC ([8]; ATCC25922, 18 h): > 64 µg/mL; MIC ([9]; ATCC19117, 18 h): 4 µg/mL (≈ 6.18 µM); MIC ([10]; ATCC29213, 18 h): 4 µg/mL (≈ 6.18 µM); MIC ([11]; ATCC29212, 18 h): 2 µg/mL (≈ 3.09 µM)
